From ChEMBL document CHEMBL5537170, “Design, Synthesis, and Anti-Osteoporotic Characterization of Arginine N-Glycosylated Teriparatide Analogs via the Silver-catalyzed Solid-Phase Glycosylation Strategy” (J Med Chem, 2024)
*1 amine or outer side, *2 acyl side, *3 side chain or, on linkers, in order; H or OH if unused. Where a SMILES comes first, the peptide text is derived from it. [ ]: non-standard residue; d: D form. X7 = N=C(NCCC[C@H](N[*:1])C(=O)[*:2])N[C@H]1O[C@H](CO)[C@@H](O)[C@H](O)[C@@H]1O; X6 = C[C@@H]1O[C@@H](NC(=N)NCCC[C@H](N[*:1])C(=O)[*:2])[C@H](O)[C@H](O)[C@H]1O

Experiment: Cytotoxicity against C57BL/6 mouse Pre-Osteoblast cells assessed as cell death upto 5 uM incubated for 4 days by CCK-8 assay
Format: toxicity, cell-based
Conditions: 96 h, time 4 day

SMILES	Activity
CC[C@H](C)[C@H](NC(=O)[C@H](CCC(=O)O)NC(=O)[C@H](CO)NC(=O)[C@@H](NC(=O)[C@H](CO)NC(C)=O)C(C)C)C(=O)N[C@@H](CCC(N)=O)C(=O)N[C@@H](CC(C)C)C(=O)N[C@@H](CCSC)C(=O)N[C@@H](Cc1cnc[nH]1)C(=O)N[C@@H](CC(N)=O)C(=O)N[C@@H](CC(C)C)C(=O)NCC(=O)N[C@@H](CCCCN)C(=O)N[C@@H](Cc1cnc[nH]1)C(=O)N[C@@H](CC(C)C)C(=O)N[C@@H](CC(N)=O)C(=O)N[C@@H](CO)C(=O)N[C@@H](CCSC)C(=O)N[C@@H](CCC(=O)O)C(=O)N[C@@H](CCCNC(=N)N)C(=O)N[C@H](C(=O)N[C@@H](CCC(=O)O)C(=O)N[C@@H](Cc1c[nH]c2ccccc12)C(=O)N[C@@H](CC(C)C)C(=O)N[C@@H](CCCNC(=N)N[C@@H]1O[C@H](CO)[C@@H](O)[C@H]1O)C(=O)N[C@@H](CCCCN)C(=O)N[C@@H](CCCCN)C(=O)N[C@@H](CC(C)C)C(=O)N[C@@H](CCC(N)=O)C(=O)N[C@@H](CC(=O)O)C(=O)N[C@H](C(=O)N[C@@H](Cc1cnc[nH]1)C(=O)N[C@@H](CC(N)=O)C(=O)N[C@@H](Cc1ccccc1)C(N)=O)C(C)C)C(C)C	Non-Toxic
CC[C@H](C)[C@H](NC(=O)[C@H](CCC(=O)O)NC(=O)[C@H](CO)NC(=O)[C@@H](NC(=O)[C@H](CO)NC(C)=O)C(C)C)C(=O)N[C@@H](CCC(N)=O)C(=O)N[C@@H](CC(C)C)C(=O)N[C@@H](CCSC)C(=O)N[C@@H](Cc1cnc[nH]1)C(=O)N[C@@H](CC(N)=O)C(=O)N[C@@H](CC(C)C)C(=O)NCC(=O)N[C@@H](CCCCN)C(=O)N[C@@H](Cc1cnc[nH]1)C(=O)N[C@@H](CC(C)C)C(=O)N[C@@H](CC(N)=O)C(=O)N[C@@H](CO)C(=O)N[C@@H](CCSC)C(=O)N[C@@H](CCC(=O)O)C(=O)N[C@@H](CCCNC(=N)N)C(=O)N[C@H](C(=O)N[C@@H](CCC(=O)O)C(=O)N[C@@H](Cc1c[nH]c2ccccc12)C(=O)N[C@@H](CC(C)C)C(=O)N[C@@H](CCCNC(=N)N[C@H]1O[C@H](CO)[C@@H](O)[C@H](O)[C@@H]1O)C(=O)N[C@@H](CCCCN)C(=O)N[C@@H](CCCCN)C(=O)N[C@@H](CC(C)C)C(=O)N[C@@H](CCC(N)=O)C(=O)N[C@@H](CC(=O)O)C(=O)N[C@H](C(=O)N[C@@H](Cc1cnc[nH]1)C(=O)N[C@@H](CC(N)=O)C(=O)N[C@@H](Cc1ccccc1)C(N)=O)C(C)C)C(C)C	Non-Toxic
CC[C@H](C)[C@H](NC(=O)[C@H](CCC(=O)O)NC(=O)[C@H](CO)NC(=O)[C@@H](NC(=O)[C@H](CO)NC(C)=O)C(C)C)C(=O)N[C@@H](CCC(N)=O)C(=O)N[C@@H](CC(C)C)C(=O)N[C@@H](CCSC)C(=O)N[C@@H](Cc1cnc[nH]1)C(=O)N[C@@H](CC(N)=O)C(=O)N[C@@H](CC(C)C)C(=O)NCC(=O)N[C@@H](CCCCN)C(=O)N[C@@H](Cc1cnc[nH]1)C(=O)N[C@@H](CC(C)C)C(=O)N[C@@H](CC(N)=O)C(=O)N[C@@H](CO)C(=O)N[C@@H](CCSC)C(=O)N[C@@H](CCC(=O)O)C(=O)N[C@@H](CCCNC(=N)N[C@H]1O[C@H](CO)[C@@H](O)[C@H](O)[C@H]1O)C(=O)N[C@H](C(=O)N[C@@H](CCC(=O)O)C(=O)N[C@@H](Cc1c[nH]c2ccccc12)C(=O)N[C@@H](CC(C)C)C(=O)N[C@@H](CCCNC(=N)N)C(=O)N[C@@H](CCCCN)C(=O)N[C@@H](CCCCN)C(=O)N[C@@H](CC(C)C)C(=O)N[C@@H](CCC(N)=O)C(=O)N[C@@H](CC(=O)O)C(=O)N[C@H](C(=O)N[C@@H](Cc1cnc[nH]1)C(=O)N[C@@H](CC(N)=O)C(=O)N[C@@H](Cc1ccccc1)C(N)=O)C(C)C)C(C)C	Non-Toxic
CC[C@H](C)[C@H](NC(=O)[C@H](CCC(=O)O)NC(=O)[C@H](CO)NC(=O)[C@@H](NC(=O)[C@H](CO)NC(C)=O)C(C)C)C(=O)N[C@@H](CCC(N)=O)C(=O)N[C@@H](CC(C)C)C(=O)N[C@@H](CCSC)C(=O)N[C@@H](Cc1cnc[nH]1)C(=O)N[C@@H](CC(N)=O)C(=O)N[C@@H](CC(C)C)C(=O)NCC(=O)N[C@@H](CCCCN)C(=O)N[C@@H](Cc1cnc[nH]1)C(=O)N[C@@H](CC(C)C)C(=O)N[C@@H](CC(N)=O)C(=O)N[C@@H](CO)C(=O)N[C@@H](CCSC)C(=O)N[C@@H](CCC(=O)O)C(=O)N[C@@H](CCCNC(=N)N)C(=O)N[C@H](C(=O)N[C@@H](CCC(=O)O)C(=O)N[C@@H](Cc1c[nH]c2ccccc12)C(=O)N[C@@H](CC(C)C)C(=O)N[C@@H](CCCNC(=N)N[C@@H]1O[C@H](CO)[C@@H](O)[C@H](O)[C@H]1NC(C)=O)C(=O)N[C@@H](CCCCN)C(=O)N[C@@H](CCCCN)C(=O)N[C@@H](CC(C)C)C(=O)N[C@@H](CCC(N)=O)C(=O)N[C@@H](CC(=O)O)C(=O)N[C@H](C(=O)N[C@@H](Cc1cnc[nH]1)C(=O)N[C@@H](CC(N)=O)C(=O)N[C@@H](Cc1ccccc1)C(N)=O)C(C)C)C(C)C	Non-Toxic
CC[C@H](C)[C@H](NC(=O)[C@H](CCC(=O)O)NC(=O)[C@H](CO)NC(=O)[C@@H](NC(=O)[C@H](CO)NC(C)=O)C(C)C)C(=O)N[C@@H](CCC(N)=O)C(=O)N[C@@H](CC(C)C)C(=O)N[C@@H](CCSC)C(=O)N[C@@H](Cc1cnc[nH]1)C(=O)N[C@@H](CC(N)=O)C(=O)N[C@@H](CC(C)C)C(=O)NCC(=O)N[C@@H](CCCCN)C(=O)N[C@@H](Cc1cnc[nH]1)C(=O)N[C@@H](CC(C)C)C(=O)N[C@@H](CC(N)=O)C(=O)N[C@@H](CO)C(=O)N[C@@H](CCSC)C(=O)N[C@@H](CCC(=O)O)C(=O)N[C@@H](CCCNC(=N)N[C@@H]1O[C@@H](C)[C@H](O)[C@@H](O)[C@H]1O)C(=O)N[C@H](C(=O)N[C@@H](CCC(=O)O)C(=O)N[C@@H](Cc1c[nH]c2ccccc12)C(=O)N[C@@H](CC(C)C)C(=O)N[C@@H](CCCNC(=N)N[C@@H]1O[C@@H](C)[C@H](O)[C@@H](O)[C@H]1O)C(=O)N[C@@H](CCCCN)C(=O)N[C@@H](CCCCN)C(=O)N[C@@H](CC(C)C)C(=O)N[C@@H](CCC(N)=O)C(=O)N[C@@H](CC(=O)O)C(=O)N[C@H](C(=O)N[C@@H](Cc1cnc[nH]1)C(=O)N[C@@H](CC(N)=O)C(=O)N[C@@H](Cc1ccccc1)C(N)=O)C(C)C)C(C)C (Ac-SVSEIQLMHNLGKHLNSME[X6]VEWL[X6]KKLQDVHNF-NH2)	Non-Toxic
CC[C@H](C)[C@H](NC(=O)[C@H](CCC(=O)O)NC(=O)[C@H](CO)NC(=O)[C@@H](NC(=O)[C@H](CO)NC(C)=O)C(C)C)C(=O)N[C@@H](CCC(N)=O)C(=O)N[C@@H](CC(C)C)C(=O)N[C@@H](CCSC)C(=O)N[C@@H](Cc1cnc[nH]1)C(=O)N[C@@H](CC(N)=O)C(=O)N[C@@H](CC(C)C)C(=O)NCC(=O)N[C@@H](CCCCN)C(=O)N[C@@H](Cc1cnc[nH]1)C(=O)N[C@@H](CC(C)C)C(=O)N[C@@H](CC(N)=O)C(=O)N[C@@H](CO)C(=O)N[C@@H](CCSC)C(=O)N[C@@H](CCC(=O)O)C(=O)N[C@@H](CCCNC(=N)N[C@@H]1O[C@H](CO)[C@@H](O)[C@H](O)[C@H]1NC(C)=O)C(=O)N[C@H](C(=O)N[C@@H](CCC(=O)O)C(=O)N[C@@H](Cc1c[nH]c2ccccc12)C(=O)N[C@@H](CC(C)C)C(=O)N[C@@H](CCCNC(=N)N)C(=O)N[C@@H](CCCCN)C(=O)N[C@@H](CCCCN)C(=O)N[C@@H](CC(C)C)C(=O)N[C@@H](CCC(N)=O)C(=O)N[C@@H](CC(=O)O)C(=O)N[C@H](C(=O)N[C@@H](Cc1cnc[nH]1)C(=O)N[C@@H](CC(N)=O)C(=O)N[C@@H](Cc1ccccc1)C(N)=O)C(C)C)C(C)C	Non-Toxic
CC[C@H](C)[C@H](NC(=O)[C@H](CCC(=O)O)NC(=O)[C@H](CO)NC(=O)[C@@H](NC(=O)[C@H](CO)NC(C)=O)C(C)C)C(=O)N[C@@H](CCC(N)=O)C(=O)N[C@@H](CC(C)C)C(=O)N[C@@H](CCSC)C(=O)N[C@@H](Cc1cnc[nH]1)C(=O)N[C@@H](CC(N)=O)C(=O)N[C@@H](CC(C)C)C(=O)NCC(=O)N[C@@H](CCCCN)C(=O)N[C@@H](Cc1cnc[nH]1)C(=O)N[C@@H](CC(C)C)C(=O)N[C@@H](CC(N)=O)C(=O)N[C@@H](CO)C(=O)N[C@@H](CCSC)C(=O)N[C@@H](CCC(=O)O)C(=O)N[C@@H](CCCNC(=N)N[C@H]1O[C@H](CO)[C@@H](O)[C@H](O)[C@@H]1O)C(=O)N[C@H](C(=O)N[C@@H](CCC(=O)O)C(=O)N[C@@H](Cc1c[nH]c2ccccc12)C(=O)N[C@@H](CC(C)C)C(=O)N[C@@H](CCCNC(=N)N)C(=O)N[C@@H](CCCCN)C(=O)N[C@@H](CCCCN)C(=O)N[C@@H](CC(C)C)C(=O)N[C@@H](CCC(N)=O)C(=O)N[C@@H](CC(=O)O)C(=O)N[C@H](C(=O)N[C@@H](Cc1cnc[nH]1)C(=O)N[C@@H](CC(N)=O)C(=O)N[C@@H](Cc1ccccc1)C(N)=O)C(C)C)C(C)C	Non-Toxic
CC[C@H](C)[C@H](NC(=O)[C@H](CCC(=O)O)NC(=O)[C@H](CO)NC(=O)[C@@H](NC(=O)[C@H](CO)NC(C)=O)C(C)C)C(=O)N[C@@H](CCC(N)=O)C(=O)N[C@@H](CC(C)C)C(=O)N[C@@H](CCSC)C(=O)N[C@@H](Cc1cnc[nH]1)C(=O)N[C@@H](CC(N)=O)C(=O)N[C@@H](CC(C)C)C(=O)NCC(=O)N[C@@H](CCCCN)C(=O)N[C@@H](Cc1cnc[nH]1)C(=O)N[C@@H](CC(C)C)C(=O)N[C@@H](CC(N)=O)C(=O)N[C@@H](CO)C(=O)N[C@@H](CCSC)C(=O)N[C@@H](CCC(=O)O)C(=O)N[C@@H](CCCNC(=N)N[C@H]1O[C@H](CO)[C@@H](O)[C@H](O)[C@@H]1O)C(=O)N[C@H](C(=O)N[C@@H](CCC(=O)O)C(=O)N[C@@H](Cc1c[nH]c2ccccc12)C(=O)N[C@@H](CC(C)C)C(=O)N[C@@H](CCCNC(=N)N[C@H]1O[C@H](CO)[C@@H](O)[C@H](O)[C@@H]1O)C(=O)N[C@@H](CCCCN)C(=O)N[C@@H](CCCCN)C(=O)N[C@@H](CC(C)C)C(=O)N[C@@H](CCC(N)=O)C(=O)N[C@@H](CC(=O)O)C(=O)N[C@H](C(=O)N[C@@H](Cc1cnc[nH]1)C(=O)N[C@@H](CC(N)=O)C(=O)N[C@@H](Cc1ccccc1)C(N)=O)C(C)C)C(C)C (Ac-SVSEIQLMHNLGKHLNSME[X7]VEWL[X7]KKLQDVHNF-NH2)	Non-Toxic
